Data on one compound can be found in patent US20150376216A1, “SUGAR-ANALOG PHOSPHORUS-CONTAINING HETEROCYCLES HAVING AN ANTI-METASTATIC ACTIVITY” (CENTRE NATIONAL DE LA RECHERCHE SCIENTIRIQUE, priority 2013, published 2015).

One data set deals with A431 line. Put plainly: MTT antiproliferative test, A431. In kind it is cell-based, human. Particulars: Homo sapiens, A-431; A431; 72 hours, MTT; read-out: IC50, inhibition of proliferation. The method, then: (§1) The lines MDAMB-435 and A431 are seeded at a density of 3000 cells per well in 96-well plates. After 24 hours, compounds 4.2a and 5.6d resuspended in 100% DMSO are added at concentrations of 0-0.001-0.010-0.1-1-10-50 μM for a final constant amount of DMSO of 0.3%. The cultures are maintained for a further 72 hours and an MTT colorimetric test is then performed. 100 μl of a solution of MTT at 5 mg/ml in PBS are added to the culture medium, which is left to incubate for 3 hours. The culture medium is removed and the cells are lyzed by adding 100 μL of a 4 mM HCl solvent, 0.1% Nondet P-40 (NP40) in isopropanol. The yellow tetrazolium MTT salt (3-(4,5-dimethylthiazol-2-yl)-2,5-diphenyl tetrazolium bromide), when it is reduced by the mitochondrial succinate dehydrogenase of active live cells, forms a blue-violet formazan product. The medium then changes from yellow to blue-violet. The intensity of this coloration at 590 nm is proportional to the number of live cells present during the test and gives an indication of the metabolic activity of these cells.
(§2) Table 1 gives the concentration values for 50% inhibition of proliferation (IC50) for compounds 4.2a and 5.6d on lines derived from bowel cancer (CaCo2), skin cancer (A431, MDAMB-435, B16F10), breast cancer (MDAMB-431), […] (HuH7), prostate cancer (DU145) and brain cancer (SNB75, Gli4, Gli7).
On the technique in general: Tetrazolium dyes change colour on reduction, which living cells bring about.

A further data set concerns CaCo2. As to the kind of experiment: MTT antiproliferative test, CaCo2. In kind it is cell-based. Particulars: Homo sapiens, Caco-2, read-out: IC50, inhibition of proliferation. How it is done:
as §1, §2

A further data set concerns MDAMB-231. As to the kind of experiment: MTT antiproliferative test, MDAMB-231. It counts as cell-based. Particulars: Homo sapiens, MDA-MB-231, read-out: IC50, inhibition of proliferation. How it is done:
as §1, §2

A further data set deals with MDAMB-435 melanoma line. As to the kind of experiment: MTT antiproliferative test, MDAMB-435. In kind it is cell-based. The settings on record: Homo sapiens, MDA-MB-435, 72 hours, read-out: IC50, inhibition of proliferation. How it is done:
as §1, §2

In the next data set the test system is HuH7. Put plainly: MTT antiproliferative test, HuH7. It counts as cell-based. Particulars: Homo sapiens, Huh-7, read-out: IC50, inhibition of proliferation. The method, then:
as §1, §2

For another data set, the system named is B16F10. Put plainly: MTT antiproliferative test, B16F10. It counts as cell-based. The settings on record: Mus musculus, B16-F10, read-out: IC50, inhibition of proliferation. How it is done:
as §1, §2

In the next data set the test system is DU145. Put plainly: MTT antiproliferative test, DU145. It counts as cell-based. The settings on record: Homo sapiens, DU-145, read-out: IC50, inhibition of proliferation. How it is done: as §1, §2
Another data set relates to SNB75 glioblastoma line. Put plainly: MTT antiproliferative test, SNB75. It counts as cell-based. The settings on record: Homo sapiens, SNB-75, read-out: IC50, inhibition of proliferation. How it is done: (§3) Several cancer cell lines were used for the in vivo or in vitro biological tests: • SNB75 is a human glioblastoma line derived from a primary culture, i.e. derived from a primary malignant cancer tumor. It forms part of the panel of 59 cancer lines referenced by the NCI. Its Cosmic reference number published by the Welcome Trust Sanger Institute is 905982. This line was supplied by a person (M.D. Ph.D of the department of “Radiation Oncology”, Stanford University Medical Center). It was cultured in Ham's F-12 and DMEM (1/1) supplemented with 10% fetal bovine serum. The experiments were performed with cells in the exponential growth phase. • Gli4 (or Gli4F11) and Gli7 are cultures of cancer strain cells derived from human glioblastomas (primary cultures). These lines are CD133^+, CD15^+ which are multipotent and tumorigenic in animals. They were established by J. P. Hugnot (INM INSERM U-1051 Eq. 4), and described in Guichet, P. O. et al, Glia 2013, 61(2), 225-239; • C6 is a rat glioblastoma line. It is referenced in the ATCC under the reference CCL-107. • MDAMB-435 is a melanoma line derived from a mammary melanoma. It forms part of the panel of 59 cancer lines referenced by the NCI. It is referenced at the ATCC under the reference HTB-129. It was cultured in Ham's F-12 and DMEM (1/1) supplemented with 10% fetal bovine serum. […]

The subject of another data set is GLi4. As to the kind of experiment: MTT antiproliferative test, Gli4. In kind it is cell-based. The settings on record: Homo sapiens, read-out: IC50, inhibition of proliferation. The method, then: as §3
Another data set in a line: Acute in vivo toxicity. Particulars: healthy mice; 50, 25, 10, 5 and 1 mg/kg; maximum dose 50 mg/kg. The method, then:
Studies of the acute toxicity of compounds 3.48a and 4.2a were performed on healthy mice for a concentration range of 50, 25, 10, 5 and 1 mg/kg.

The test system of a further data set is MDAMB-435 cells. Put plainly: MDAMB-435 subcutaneous model. In kind it is in vivo, mice. How it is done: A suspension of 1×10^6 MDAMB-435 cells in 100 μl of sterile PBS (phosphate-buffered saline, supplied by Fisher) was injected into each mouse (subcutaneous administration, with anesthesia, in the mammary gland of the left hind quarter). Once a control pregroup of three mice presented the first metastases (liver, intestine, ovary), the protocol was conducted with […] of eight mice. The five groups of mice were treated using one of the five formulations described below:
Group A: Treatment by injection of 100 μl of NaCl (control N° 1).
Group B: Treatment by injection of 100 to 150 μl according to the weight of the mice of formulation 2 not containing compound 4.2a (control N° 2).
Group C: Treatment with compound 4.2a at a rate of 10 mg/kg with volumes of 100 to 150 μl of formulation 2 depending on the weight of the mice.
Group D: Treatment with compound 4.2a at a rate of 5 mg/kg with volumes of 100 to 150 μl of formulation 2 depending on the weight of the mice.
Each batch was treated by intravenous injection into the caudal vein of 100 to 150 μl of solution (precision syringe and G25X1 needle ultrafine wall, VWR). Three injections per week for four weeks were performed. The mice were weighed at each injection. The mice were sacrificed after four weeks, and the tumors and organs (liver, kidney, spleen, brain, intestine, heart, muscles) were removed. A histological analysis was performed on these organs.

Setting [1] is: 10 and 5 mg/kg i.v. (groups C and D), three injections per week for four weeks.

For `CC1(C)O[C@H]2[C@@H]([C@H]3COC(C)(C)O3)O[P@](=O)(c3ccccc3)[C@@H](OC(=O)c3ccccc3)[C@H]2O1` [Compound 4.2a, (SPRSRR)-3-benzoate-4-(2,2-dimethyl-[1,3]dioxolan-4-yl)-2,2-dimethyl-2-oxo-2-phenyl-tetrahydro-2λ^5-[1,2]oxaphosphinane], the IC50 with A431 line is 4.35 µM; in the data set on CaCo2, greater than 100 µM; in the data set on MDAMB-231, 1.16 µM; with MDAMB-435 melanoma line, 0.66 µM; with HuH7, greater than 100 µM; in the data set on B16F10 it was 13.5 µM. Also, the IC50 is greater than 100 µM in the data set on DU145, 9.54 µM in the data set with SNB75 glioblastoma line and 6.81 µM in the data set on GLi4. The “Mortality, acute toxicity” value in “Acute in vivo toxicity” is “No mortality was observed”. Further, in the data set on MDAMB-435 cells (10 and 5 mg/kg (groups C and D)), the “Metastases in the ovaries (FIG. 4)” value is “absence of metastases”. In the data set on MDAMB-435 cells (10 and 5 mg/kg (groups C and D), controls predominantly more than two), the “Number of metastases per mouse (FIG. 5)” value is “none of the mice treated with compound 4.2a (groups C and D) developed more than two metastases”. In the data set on MDAMB-435 cells (setting [1]), the “Metastatic development (size of metastases)” value is “a reduction in metastatic development (small-sized metastases)”. The Number of metastases result in the data set on MDAMB-435 cells (setting [1]) was “a large reduction in the number of metastases”. Besides, the “Mass distribution of secondary tumors (FIG. 6)” value in the data set with MDAMB-435 cells (as a function of the treatment conditions) is reported as “reduced the development of metastases”.
